Results as given in paper PMC10537087, “Evaluating Known Zika Virus NS2B-NS3 Protease Inhibitor Scaffolds via In Silico Screening and Biochemical Assays” (Pharmaceuticals, 2023).
Where two headings read alike, the source gives them in different places.

How the values were obtained:
ZIKV NS2B-NS3pro = ZIKV NS2B-NS3pro (Zika virus, UniProt A0A024B7W1, C1582S/C1645S/R1467A/R1531G); assay: ZIKV NS2B-NS3pro inhibitory assay with fluorogenic substrate Bz-Nle-Lys-Lys-Arg-AMC; type: biochemical; conditions: for % ZIKV NS2B/NS3pro Inhibition [Enzyme] = 0.2 nM / % ZIKV NS2B/NS3pro Inhibition [Enzyme] = 2 nM: compound 25 µM (close to IC50), CHAPS 1 mM; for % ZIKV NS2B/NS3pro Inhibition (100 µM) 0.001% Triton / % ZIKV NS2B/NS3pro Inhibition (100 µM) 0.01% Triton / % ZIKV NS2B/NS3pro Inhibition (100 µM) BSA / % ZIKV NS2B/NS3pro Inhibition (100 µM) With Preincubation / % ZIKV NS2B/NS3pro Inhibition (100 µM) Without Preincubation: compound 100 µM; for % ZIKV NS2B/NS3pro Inhibition (100 µM) 0.001% Triton: 0.001% Triton X-100, no Tween-20; for % ZIKV NS2B/NS3pro Inhibition (100 µM) 0.001% Triton / % ZIKV NS2B/NS3pro Inhibition (100 µM) 0.01% Triton: 10 min preincubation; for % ZIKV NS2B/NS3pro Inhibition (100 µM) 0.01% Triton: 0.01% Triton X-100, no Tween-20; for % ZIKV NS2B/NS3pro Inhibition (100 µM) BSA: 10 min pre-incubation with BSA 1 mg/mL before enzyme; for % ZIKV NS2B/NS3pro Inhibition (100 µM) With Preincubation: 10 min preincubation with enzyme; for % ZIKV NS2B/NS3pro Inhibition (100 µM) Without Preincubation: no preincubation; for Hill Slope Replica 1 / Hill Slope Replica 2: from dose-response curve
[1] = Cytotoxicity MTT assay (CC50); conditions: African green monkey, Vero (ATCC CCL-81) cells
Description: (§1) The Vero (ATCC® CCL-81™) cell line was used for the cytotoxicity assays and antiviral activity evaluation against ZIKV. Cells were cultured in Eagle’s minimum essential media (MEM) (Cultilab, Campinas, Brazil). The media was supplemented with 5% fetal bovine serum (FBS) (Cultilab, Brazil), in addition to 100 IU/mL penicillin (Cellofarm, Rio De Janeiro, Brazil), 100 μg/mL streptomycin (Merck, Darmstadt, Germany), and 0.25 μg/mL amphotericin B (Cultilab, Brazil).
(§2) Cells were seeded in 96-well microplates (4.0 × 10^4 cells per well) and incubated at 37 °C and 5% CO2 for 24 h. Then, 200 µL of MEM with 1% FBS containing a serial dilution of the compounds (100 to 12.5 µM) was added. As vehicle control, a serial dilution of DMSO was used. After 72 h of incubation under the same conditions, 100 μL of 3-(4,5-dimethylthiazol-2-yl)-2,5-diphenyltetrazolium bromide (MTT; ThermoFischer Scientific, Waltham, MA, USA) [76] diluted in MEM (0.5 mg/mL) was added to each well and incubated for 3 h. The media was removed, and 100 μL of DMSO was added to each well to solubilize formazan crystals and shaken for 20 min. The absorbance was read at 570 nm using a spectrophotometer (VersaMax, Molecular Devices, San Jose, CA, USA). The percentages of inhibition of cell viability were calculated as the ratio between the absorbance of the compound-treated cells and cells with only the vehicle. […] Linear regression (LR) was used for the analysis, considering results with r^2 > 0.9. All conditions were tested in triplicate and one independent assay (n = 3 data points).

[2] = test system: Vero (ATCC CCL-81) cell line; assay: Cytotoxicity MTT assay (CC50); conditions: Vero cells
Description: as §1, §2

[3] = Solubility in cruzain assay buffer; type: physicochemical; conditions: sodium acetate 0.1 M pH 5.5, β-mercaptoethanol 10 mM
ZIKV (PE243) = test system: ZIKV (PE243); parameters: method as in Serafim et al. [64]; conditions: comparison control, ref Serafim et al. [64]; cited from earlier work
[4] = test system: Vero (ATCC CCL-81) cell line; parameters: method as in Serafim et al. [64]; conditions: comparison control; ref Serafim et al. [64]; cited from earlier work

SMILES	% ZIKV NS2B/NS3pro Inhibition [Enzyme] = 0.2 nM (ZIKV NS2B-NS3pro; enzyme 0.2 nM) [%]	% ZIKV NS2B/NS3pro Inhibition [Enzyme] = 2 nM (ZIKV NS2B-NS3pro) [%]	% ZIKV NS2B/NS3pro Inhibition (100 µM) 0.001% Triton (ZIKV NS2B-NS3pro) [%]	% ZIKV NS2B/NS3pro Inhibition (100 µM) 0.01% Triton (ZIKV NS2B-NS3pro) [%]	% ZIKV NS2B/NS3pro Inhibition (100 µM) BSA (ZIKV NS2B-NS3pro) [%]	% ZIKV NS2B/NS3pro Inhibition (100 µM) With Preincubation (ZIKV NS2B-NS3pro; 0.005% Tween-20, enzyme 0.2 nM) [%]	% ZIKV NS2B/NS3pro Inhibition (100 µM) Without Preincubation (ZIKV NS2B-NS3pro; 0.005% Tween-20) [%]	Hill Slope Replica 1 (ZIKV NS2B-NS3pro)	Hill Slope Replica 2 (ZIKV NS2B-NS3pro)	CC50 at 72 h [1] [µM]	Cell viability as percentage of cell control (mean absorbance / CELL) ([2]; compound 12.5 µM)	Cell viability as percentage of cell control (mean absorbance / CELL) ([2]; compound 25 µM)	Cell viability as percentage of cell control (mean absorbance / CELL) ([2]; compound 50 µM)	Cell viability as percentage of cell control (mean absorbance / CELL) ([2]; compound 100 µM)	solubility in the cruzain assay buffer [3]	IC50 (ZIKV NS2B-NS3pro; 0.005% Tween-20, enzyme 0.2 nM, substrate 44 µM, read-out: ZIKV NS2B/NS3pro IC50) [µM]	IC50 (ZIKV NS2B-NS3pro; one value per independent assay (two curves per compound), read-out: IC50 of the individual curves for NS2B-NS3pro inhibitors (Figure 3)) [µM]	EC50 (ZIKV (PE243)) [µM]	CC50 [4] [µM]
O=C(Nc1nc2ccccc2[nH]1)c1ccccc1NS(=O)(=O)c1ccc(Cl)cc1 [Compound 6]	99 ± 0.4	66 ± 21	89 ± 6	7 ± 9	55 ± 20	100 ± 0	99 ± 2	6.697	4.362	38.4 ± 2.18	63.7676	61.7079	41.6329	48.6633	insoluble				
Cc1cc(C(=O)c2ccccc2NS(=O)(=O)c2ccc(F)cc2)nn1-c1ccccc1 [Compound 13]	43 ± 0.1	26 ± 10	100 ± 0	45 ± 9	57 ± 15	95 ± 2	100 ± 1	5.057	5.334	< 12.5	41.6898	25.5093	21.6435	12.8704	insoluble	28 ± 1	29		
NC(=O)c1ncn([C@@H]2O[C@H](CO)[C@@H](O)[C@H]2O)n1 [Ribavirin]																		4.1 ± 0.35	> 100
